Data taken from PubChem BioAssay AID2060896 (Molecular Pharmacology Branch, DTP, NCI, 2025).

Tested on: 941728-121-R-J1-PDC complex spheroid viability
Experiment: Anticancer human tumor 941728-121-R-J1-PDC patient-derived lung adenocarcinoma cell line growth inhibition [RAS]
Settings: for IC50: curve of first compound; for viability, T/C: stronger effect = lower value
In short: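 Tumour cells grown as complex spheroids with HUVEC endothelial cells and mesenchymal stem cells, treated with RAS pathway inhibitor combinations. Each agent spans half-log steps from near clinical Cmax, or 10 microM where Cmax is unknown.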

[1] = second compound 0.0316 µM, first compound 0.0316 µM
[2] = second compound 0.0316 µM, first compound 0.1 µM
[3] = second compound 0.0316 µM, first compound 0.316 µM
[4] = second compound 0.0316 µM, first compound 1 µM
[5] = second compound 0.0316 µM, first compound 3.16 µM
[6] = second compound 0.0316 µM, first compound 10 µM
[7] = second compound 0.1 µM, first compound 0.0316 µM
[8] = second compound 0.1 µM, first compound 0.1 µM
[9] = second compound 0.1 µM, first compound 0.316 µM
[10] = second compound 0.1 µM, first compound 1 µM
[11] = second compound 0.1 µM, first compound 3.16 µM
[12] = second compound 0.1 µM, first compound 10 µM
[13] = second compound 0.316 µM, first compound 0.0316 µM
[14] = second compound 0.316 µM, first compound 0.1 µM
[15] = second compound 0.316 µM, first compound 0.316 µM
[16] = second compound 0.316 µM, first compound 1 µM
[17] = second compound 0.316 µM, first compound 3.16 µM
[18] = second compound 0.316 µM, first compound 10 µM
[19] = second compound 1 µM, first compound 0.0316 µM
[20] = second compound 1 µM, first compound 0.1 µM
[21] = second compound 1 µM, first compound 0.316 µM
[22] = second compound 1 µM, first compound 1 µM
[23] = second compound 1 µM, first compound 3.16 µM
[24] = second compound 1 µM, first compound 10 µM
[25] = second compound 3.16 µM, first compound 0.0316 µM
[26] = second compound 3.16 µM, first compound 0.1 µM
[27] = second compound 3.16 µM, first compound 0.316 µM
[28] = second compound 3.16 µM, first compound 1 µM
[29] = second compound 3.16 µM, first compound 3.16 µM
[30] = second compound 3.16 µM, first compound 10 µM
[31] = second compound 10 µM, first compound 0.0316 µM
[32] = second compound 10 µM, first compound 0.1 µM
[33] = second compound 10 µM, first compound 0.316 µM
[34] = second compound 10 µM, first compound 1 µM
[35] = second compound 10 µM, first compound 3.16 µM
[36] = second compound 10 µM, first compound 10 µM
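Note: spheroids exposed to compounds for 7 days before readout.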
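Throughout, for viability, T/C: 100% = DMSO vehicle control viability.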

Structure (SMILES): CC1(O)CCCC1n1c(=O)c(C(F)F)cc2cnc(NC3CCN(S(C)(=O)=O)CC3)nc21 (stereo not drawn) + C#Cc1c(F)ccc2cc(O)cc(-c3ncc4c(N5CC6CCC(C5)N6)nc(OCC56CCCN5CC(F)C6)nc4c3F)c12
- IC50 (second compound 0.0316 µM): 6750 nM
- IC50 (second compound 0.1 µM): 6760 nM
- IC50 (second compound 0.316 µM): > 10000 nM
- IC50 (second compound 1 µM): < 31.6 nM
- IC50 (second compound 3.16 µM): < 31.6 nM
- IC50 (second compound 10 µM): < 31.6 nM
- viability, T/C [1]: 69.8%
- viability, T/C [2]: 75%
- viability, T/C [3]: 71.9%
- viability, T/C [4]: 80.1%
- viability, T/C [5]: 81.7%
- viability, T/C [6]: 36.7%
- viability, T/C [7]: 69.4%
- viability, T/C [8]: 72%
- viability, T/C [9]: 62.6%
- viability, T/C [10]: 68.7%
- viability, T/C [11]: 75.7%
- viability, T/C [12]: 40%
- viability, T/C [13]: 56.2%
- viability, T/C [14]: 51.5%
- viability, T/C [15]: 51.2%
- viability, T/C [16]: 65.6%
- viability, T/C [17]: 65%
- viability, T/C [18]: 39.9%
- viability, T/C [19]: 44.2%
- viability, T/C [20]: 38.9%
- viability, T/C [21]: 46.9%
- viability, T/C [22]: 50.3%
- viability, T/C [23]: 55.3%
- viability, T/C [24]: 36%
- viability, T/C [25]: 30.1%
- viability, T/C [26]: 33%
- viability, T/C [27]: 36.5%
- viability, T/C [28]: 36.9%
- viability, T/C [29]: 38.5%
- viability, T/C [30]: 28.6%
- viability, T/C [31]: 25.6%
- viability, T/C [32]: 26.6%
- viability, T/C [33]: 28%
- viability, T/C [34]: 28.1%
- viability, T/C [35]: 28%
- viability, T/C [36]: 24%

Structure (SMILES): CCC(CC)c1cc(NC2CCC(N)C2)n2nccc2n1 (stereo not drawn) + C#Cc1c(F)ccc2cc(O)cc(-c3ncc4c(N5CC6CCC(C5)N6)nc(OCC56CCCN5CC(F)C6)nc4c3F)c12
- IC50 (second compound 0.0316 µM): 2100 nM
- IC50 (second compound 0.1 µM): 1970 nM
- IC50 (second compound 0.316 µM): 1470 nM
- IC50 (second compound 1 µM): < 31.6 nM
- IC50 (second compound 3.16 µM): < 31.6 nM
- IC50 (second compound 10 µM): < 31.6 nM
- viability, T/C [1]: 96.6%
- viability, T/C [2]: 82.6%
- viability, T/C [3]: 91.4%
- viability, T/C [4]: 90.5%
- viability, T/C [5]: 19.2%
- viability, T/C [6]: 36.7%
- viability, T/C [7]: 96.1%
- viability, T/C [8]: 79%
- viability, T/C [9]: 78.5%
- viability, T/C [10]: 84.1%
- viability, T/C [11]: 20.8%
- viability, T/C [12]: 31.4%
- viability, T/C [13]: 60.9%
- viability, T/C [14]: 83.7%
- viability, T/C [15]: 59.5%
- viability, T/C [16]: 63.1%
- viability, T/C [17]: 18.4%
- viability, T/C [18]: 29.7%
- viability, T/C [19]: 40.1%
- viability, T/C [20]: 40.1%
- viability, T/C [21]: 41.4%
- viability, T/C [22]: 46.2%
- viability, T/C [23]: 18.7%
- viability, T/C [24]: 32.7%
- viability, T/C [25]: 31.5%
- viability, T/C [26]: 33.1%
- viability, T/C [27]: 37.6%
- viability, T/C [28]: 35.8%
- viability, T/C [29]: 15.3%
- viability, T/C [30]: 34.3%
- viability, T/C [31]: 23.2%
- viability, T/C [32]: 25.9%
- viability, T/C [33]: 27.2%
- viability, T/C [34]: 25.6%
- viability, T/C [35]: 11.4%
- viability, T/C [36]: 25.6%

Structure (SMILES): CCN1CCN(Cc2ccc(Nc3ncc(F)c(-c4cc(F)c5nc(C)n(C(C)C)c5c4)n3)nc2)CC1 + C#Cc1c(F)ccc2cc(O)cc(-c3ncc4c(N5CC6CCC(C5)N6)nc(OCC56CCCN5CC(F)C6)nc4c3F)c12
- IC50 (second compound 0.0316 µM): > 1000 nM
- IC50 (second compound 0.1 µM): > 1000 nM
- IC50 (second compound 0.316 µM): > 1000 nM
- IC50 (second compound 1 µM): < 3.16 nM
- IC50 (second compound 3.16 µM): < 3.16 nM
- IC50 (second compound 10 µM): < 3.16 nM
- viability, T/C (second compound 0.0316 µM, first compound 0.00316 µM): 75.4%
- viability, T/C (second compound 0.0316 µM, first compound 0.01 µM): 70.4%
- viability, T/C [1]: 58%
- viability, T/C [2]: 49%
- viability, T/C [3]: 58%
- viability, T/C [4]: 59.7%
- viability, T/C (second compound 0.1 µM, first compound 0.00316 µM): 71.4%
- viability, T/C (second compound 0.1 µM, first compound 0.01 µM): 62%
- viability, T/C [7]: 52.9%
- viability, T/C [8]: 46.7%
- viability, T/C [9]: 55.9%
- viability, T/C [10]: 68.9%
- viability, T/C (second compound 0.316 µM, first compound 0.00316 µM): 55.6%
- viability, T/C (second compound 0.316 µM, first compound 0.01 µM): 56.8%
- viability, T/C [13]: 38.3%
- viability, T/C [14]: 45.2%
- viability, T/C [15]: 51%
- viability, T/C [16]: 57.3%
- viability, T/C (second compound 1 µM, first compound 0.00316 µM): 38.2%
- viability, T/C (second compound 1 µM, first compound 0.01 µM): 34.7%
- viability, T/C [19]: 31.4%
- viability, T/C [20]: 35.5%
- viability, T/C [21]: 41.7%
- viability, T/C [22]: 50.1%
- viability, T/C (second compound 3.16 µM, first compound 0.00316 µM): 28.8%
- viability, T/C (second compound 3.16 µM, first compound 0.01 µM): 26.4%
- viability, T/C [25]: 31.3%
- viability, T/C [26]: 25.3%
- viability, T/C [27]: 30.9%
- viability, T/C [28]: 36.2%
- viability, T/C (second compound 10 µM, first compound 0.00316 µM): 23.5%
- viability, T/C (second compound 10 µM, first compound 0.01 µM): 20.9%
- viability, T/C [31]: 21.9%
- viability, T/C [32]: 19.8%
- viability, T/C [33]: 18.4%
- viability, T/C [34]: 16.5%

Structure (SMILES): Cc1nc(N2CCC3(CC2)COC(C)C3N)c(CO)nc1Sc1ccnc(N)c1Cl (stereo not drawn) + C#Cc1c(F)ccc2cc(O)cc(-c3ncc4c(N5CC6CCC(C5)N6)nc(OCC56CCCN5CC(F)C6)nc4c3F)c12
- IC50 (second compound 0.0316 µM): < 31.6 nM
- IC50 (second compound 0.1 µM): < 31.6 nM
- IC50 (second compound 0.316 µM): < 31.6 nM
- IC50 (second compound 1 µM): < 31.6 nM
- IC50 (second compound 3.16 µM): < 31.6 nM
- IC50 (second compound 10 µM): < 31.6 nM
- viability, T/C [1]: 50.4%
- viability, T/C [2]: 42.5%
- viability, T/C [3]: 37.8%
- viability, T/C [4]: 33.5%
- viability, T/C [5]: 34%
- viability, T/C [6]: 36.8%
- viability, T/C [7]: 42.8%
- viability, T/C [8]: 37.8%
- viability, T/C [9]: 33.1%
- viability, T/C [10]: 31.7%
- viability, T/C [11]: 33%
- viability, T/C [12]: 35.4%
- viability, T/C [13]: 37.8%
- viability, T/C [14]: 34.2%
- viability, T/C [15]: 35.7%
- viability, T/C [16]: 29.1%
- viability, T/C [17]: 32%
- viability, T/C [18]: 31%
- viability, T/C [19]: 30.2%
- viability, T/C [20]: 32.4%
- viability, T/C [21]: 29.9%
- viability, T/C [22]: 27.9%
- viability, T/C [23]: 30.5%
- viability, T/C [24]: 32.3%
- viability, T/C [25]: 28.8%
- viability, T/C [26]: 29.1%
- viability, T/C [27]: 25.7%
- viability, T/C [28]: 23.1%
- viability, T/C [29]: 25.1%
- viability, T/C [30]: 26.2%
- viability, T/C [31]: 20.1%
- viability, T/C [32]: 21.4%
- viability, T/C [33]: 19.9%
- viability, T/C [34]: 19.6%
- viability, T/C [35]: 21.3%
- viability, T/C [36]: 20.8%
